Results published in patent publication US11826351B2, “Compounds useful as kinase inhibitors” (Loxo Oncology, Inc., priority 2015, dated 2023).

What was measured:
Recombinant EGFR = molecular target: T1, Recombinant EGFR (Homo sapiens, UniProt P00533); assay: EGFR binding affinity (LanthaScreen TR-FRET); settings: Kinase Tracer 199, 5 h incubation
T1 construct: purchased Invitrogen
Procedure, shortened: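 Compounds were titrated against recombinant EGFR and binding was followed by LanthaScreen time-resolved FRET.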

[1] = system: OCI-Ly10 human DLBCL cells; assay: OCI-Ly10 anti-proliferative activity (Resazurin); format: cell-based; settings: Homo sapiens, OCI-Ly10, 72 h, OCI-Ly10 cells, 72 h compound treatment, Resazurin; read-out: Proliferation Assay OCI-Ly10-20% FBS
Procedure, shortened: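 A separate untreated plate gave the Day 0 reading, measured by Resazurin fluorescence at 590 nm after 5 h. The average Day 0 value was subtracted from each treated well, and results were expressed as percent of DMSO control. IC50 values came from a log[Inhibitor] vs response Variable Slope fit in Graphpad prism.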

[2] = molecular target: T2, Recombinant BTK^C481S kinase (Homo sapiens, UniProt Q06187, C481S); assay: BTK C481S binding affinity (LanthaScreen TR-FRET); settings: Kinase Tracer 236, 5 h incubation
T2 construct: purchased SignalChem
T2 sequence (Q06187 whole entry C481S): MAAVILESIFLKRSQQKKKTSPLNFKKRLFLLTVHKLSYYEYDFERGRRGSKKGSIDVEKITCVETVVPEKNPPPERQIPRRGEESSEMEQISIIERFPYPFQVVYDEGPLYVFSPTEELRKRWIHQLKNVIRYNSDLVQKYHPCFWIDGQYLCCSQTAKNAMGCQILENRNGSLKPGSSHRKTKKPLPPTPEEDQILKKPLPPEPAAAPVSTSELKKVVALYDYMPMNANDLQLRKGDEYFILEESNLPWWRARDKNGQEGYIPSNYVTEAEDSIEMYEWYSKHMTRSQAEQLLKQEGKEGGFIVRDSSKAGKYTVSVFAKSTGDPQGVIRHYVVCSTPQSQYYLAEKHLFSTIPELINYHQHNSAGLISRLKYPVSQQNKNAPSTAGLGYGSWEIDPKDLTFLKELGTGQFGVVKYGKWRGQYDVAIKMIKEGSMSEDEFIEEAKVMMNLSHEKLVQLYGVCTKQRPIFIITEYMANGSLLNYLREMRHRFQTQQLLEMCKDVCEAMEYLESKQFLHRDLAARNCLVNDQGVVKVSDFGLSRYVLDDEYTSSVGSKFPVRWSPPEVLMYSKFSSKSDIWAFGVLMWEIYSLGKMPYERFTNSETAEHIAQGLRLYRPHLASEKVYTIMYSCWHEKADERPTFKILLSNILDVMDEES
Procedure, shortened: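 BTK C481S tracer-displacement TR-FRET: 5 nM His-tagged kinase, 2 nM Eu anti-His antibody and 30 nM Kinase Tracer 236 incubated with titrated inhibitor for 5 h in Kinase Buffer A. Read at 340 nm excitation, 615/665 nm emission; IC50 from variable-slope log[inhibitor]–response fit.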

[3] = molecular target: T3, Recombinant BTK^WT kinase (Homo sapiens, UniProt Q06187); assay: BTK WT binding affinity (LanthaScreen TR-FRET); settings: Kinase Tracer 236, 5 h incubation
T3 construct: purchased Invitrogen
T3 sequence (Q06187 whole entry): as the sequence (Q06187 whole entry C481S) above, with S481C counted along it
Procedure, shortened: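 IC50 obtained by variable-slope fit of TR-FRET signal (ex 340 nm; em 615 and 665 nm) versus inhibitor concentration. Reaction held for 5 h in LanthaScreen Kinase Buffer A with 2.5 nM His-tagged BTK^WT, 15 nM Kinase Tracer 236 and 2 nM Eu anti-His antibody.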

T1 sequence (P00533 25-1210): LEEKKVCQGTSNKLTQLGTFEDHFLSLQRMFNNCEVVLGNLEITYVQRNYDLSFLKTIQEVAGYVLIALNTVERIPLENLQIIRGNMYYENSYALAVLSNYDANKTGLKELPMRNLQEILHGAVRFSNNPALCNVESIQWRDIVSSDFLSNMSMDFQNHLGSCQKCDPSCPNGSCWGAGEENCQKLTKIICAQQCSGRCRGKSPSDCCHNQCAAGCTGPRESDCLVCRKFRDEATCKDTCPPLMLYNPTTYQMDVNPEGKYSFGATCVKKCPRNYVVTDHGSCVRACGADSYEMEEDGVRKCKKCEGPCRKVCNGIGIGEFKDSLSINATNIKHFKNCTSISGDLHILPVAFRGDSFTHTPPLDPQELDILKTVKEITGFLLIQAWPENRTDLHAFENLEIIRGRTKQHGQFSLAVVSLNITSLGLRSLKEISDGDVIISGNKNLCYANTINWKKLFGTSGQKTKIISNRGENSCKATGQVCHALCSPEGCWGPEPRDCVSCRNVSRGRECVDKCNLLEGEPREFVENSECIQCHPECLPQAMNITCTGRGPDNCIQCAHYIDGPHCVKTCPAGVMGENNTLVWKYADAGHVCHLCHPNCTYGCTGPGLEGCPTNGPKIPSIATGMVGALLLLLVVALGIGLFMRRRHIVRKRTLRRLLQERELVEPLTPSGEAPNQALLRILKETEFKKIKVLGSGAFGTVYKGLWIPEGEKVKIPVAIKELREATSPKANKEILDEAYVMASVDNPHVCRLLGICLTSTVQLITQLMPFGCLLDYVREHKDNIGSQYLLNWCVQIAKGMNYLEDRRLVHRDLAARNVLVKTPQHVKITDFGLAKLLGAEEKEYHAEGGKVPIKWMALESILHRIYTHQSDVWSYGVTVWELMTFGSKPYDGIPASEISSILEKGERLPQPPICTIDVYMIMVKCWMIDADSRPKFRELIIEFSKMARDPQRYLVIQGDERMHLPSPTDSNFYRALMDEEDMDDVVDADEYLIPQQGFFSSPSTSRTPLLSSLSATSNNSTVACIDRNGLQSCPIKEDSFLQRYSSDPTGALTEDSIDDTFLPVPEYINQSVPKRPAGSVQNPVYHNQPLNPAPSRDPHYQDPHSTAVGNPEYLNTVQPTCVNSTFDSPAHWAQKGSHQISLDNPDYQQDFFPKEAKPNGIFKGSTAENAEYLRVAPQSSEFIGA

Row | SMILES | IC50 (Recombinant EGFR) [nM] | IC50 [1] [nM] | IC50 [2] [nM] | IC50 [3] [nM]
1 | COc1ccc(F)cc1C(=O)NCc1ccc(-c2nn(C3CCOCC3)c(N)c2C(N)=O)c(F)c1 [Example 106, 5-amino-3-[2-fluoro-4-[[(5-fluoro-2-methoxy-benzoyl)amino]methyl]phenyl]-1-tetrahydropyran-4-yl-pyrazole-4-carboxamide] | > 10000 | 100 to 1000 | < 10 | < 10
2 | COCC(C)n1nc(-c2ccc(CNC(=O)c3ccccc3OC)cc2)c(C(N)=O)c1N (stereo not drawn) [Example 143, 5-amino-3-[4-[[(2-methoxybenzoyl)amino]methyl]phenyl]-1-(2-methoxy-1-methyl-ethyl)pyrazole-4-carboxamide] | > 10000 | 100 to 1000 | < 10 | 10 to 100
3 | COc1ccccc1C(=O)NCc1cc(-c2nn(C3CCCC3)c(N)c2C(N)=O)ccc1F [Example 118, 5-amino-1-cyclopentyl-3-[4-fluoro-3-[[(2-methoxybenzoyl)amino]methyl]phenyl]pyrazole-4-carboxamide] | 1000 to 10000 | 1000 to 10000 | 10 to 100 | 100 to 1000
4 | COc1ccccc1C(=O)NCc1ccc(-c2nn(C3CCC(=O)C3)c(N)c2C(N)=O)cc1 (stereo not drawn) [Example 13, 5-Amino-3-[4-[[(2-methoxybenzoyl)amino]methyl]phenyl]-1-(3-oxocyclopentyl)pyrazole-4-carboxamide] | 1000 to 10000 | 100 to 1000 | < 10 | < 10
5 | COc1ccc(F)cc1C(=O)NCc1ccc(-c2nn(C3(C(F)(F)F)CCOCC3)c(N)c2C(N)=O)cc1 [Example 190, 5-Amino-3-[4-[[(5-fluoro-2-methoxy-benzoyl)amino]methyl]phenyl]-1-[4-(trifluoromethyl)tetrahydropyran-4-yl]pyrazole-4-carboxamide] | 1000 to 10000 | 1000 to 10000 | 10 to 100 | 100 to 1000
6 | COc1ccc(C)cc1C(=O)NCc1ccc(-c2nn(C3CCCC3)c(N)c2C(N)=O)cc1F [Example 92, 5-amino-1-cyclopentyl-3-[3-fluoro-4-[[(2-methoxy-5-methyl-benzoyl)amino]methyl]phenyl]pyrazole-4-carboxamide] | > 10000 | 10 to 100 | < 10 | < 10
7 | COc1ccccc1C(=O)NCc1ccc(-c2nn(CC(O)C(C)(C)C)c(N)c2C(N)=O)cc1 (stereo not drawn) [Example 14, 5-Amino-1-(2-hydroxy-3,3-dimethyl-butyl)-3-[4-[[(2-methoxybenzoyl)amino]methyl]phenyl]pyrazole-4-carboxamide] | 1000 to 10000 | 100 to 1000 | 10 to 100 | 10 to 100
8 | COc1ccccc1C(=O)NCc1ccc(-c2nn(C3CCCC3)c(N)c2C(N)=O)c(F)c1F [Example 155, 5-amino-1-cyclopentyl-3-[2,3-difluoro-4-[[(2-methoxybenzoyl)amino]methyl]phenyl]pyrazole-4-carboxamide] | 1000 to 10000 | 10 to 100 | < 10 | < 10
9 | COc1ccc(F)cc1C(=O)NCc1ccc(-c2nn(C3CCOCC3)c(N)c2C(N)=O)cc1 [Example 115, 5-amino-3-[4-[[(5-fluoro-2-methoxy-benzoyl)amino]methyl]phenyl]-1-tetrahydropyran-4-yl-pyrazole-4-carboxamide] | 1000 to 10000 | 10 to 100 | < 10 | < 10
10 | COc1ccccc1C(=O)NC(C)c1ccc(-c2nn(C3CCCC3)c(N)c2C(N)=O)cc1 (stereo not drawn) [Example 79, 5-amino-1-cyclopentyl-3-[4-[1-[(2-methoxybenzoyl)amino]ethyl]phenyl]pyrazole-4-carboxamide] | 1000 to 10000 | 1000 to 10000 | 100 to 1000 | 100 to 1000
11 | COc1ccc(F)cc1C(=O)NCc1c(F)cc(-c2nn(C3CCCC3)c(N)c2C(N)=O)cc1F [Example 139, 5-amino-1-cyclopentyl-3-[3,5-difluoro-4-[[(5-fluoro-2-methoxy-benzoyl)amino]methyl]phenyl]pyrazole-4-carboxamide] | > 10000 | 100 to 1000 | < 10 | 10 to 100
12 | COc1ccc(F)cc1C(=O)NCc1ccc(-c2nn(C3COCC3(F)F)c(N)c2C(N)=O)cc1 (stereo not drawn) [Example 200, 5-amino-1-(4,4-difluorotetrahydrofuran-3-yl)-3-[4-[[(5-fluoro-2-methoxy-benzoyl)amino]methyl]phenyl]pyrazole-4-carboxamide] | 1000 to 10000 | 10 to 100 | < 10 | < 10
13 | COc1ccccc1C(=O)NCc1ccc(-c2nn(C3CCOCC3)c(C(F)F)c2C(N)=O)cc1 [Example 108, 5-(difluoromethyl)-3-[4-[[(2-methoxybenzoyl)amino]methyl]phenyl]-1-tetrahydropyran-4-yl-pyrazole-4-carboxamide] | > 10000 | 1000 to 10000 | 10 to 100 | 10 to 100

Further lines, results first:

Row | IC50 (Recombinant EGFR) [nM] | IC50 [1] [nM] | IC50 [2] [nM] | IC50 [3] [nM] | SMILES
14 | 1000 to 10000 | 100 to 1000 | < 10 | 10 to 100 | COc1ccccc1C(=O)NCc1ccc(-c2nn(C3CCOCC3)c(N)c2C(N)=O)cc1F [Example 116, 5-amino-3-[3-fluoro-4-[[(2-methoxybenzoyl)amino]methyl]phenyl]-1-tetrahydropyran-4-yl-pyrazole-4-carboxamide]
15 | 1000 to 10000 | 10 to 100 | < 10 | 10 to 100 | COc1ccccc1C(=O)NCc1ccc(-c2nn(C3CN(C)CC3(F)F)c(N)c2C(N)=O)cc1F (stereo not drawn) [Example 166, 5-amino-1-(4,4-difluoro-1-methyl-pyrrolidin-3-yl)-3-[3-fluoro-4-[[(2-methoxybenzoyl)amino]methyl]phenyl]pyrazole-4-carboxamide]
16 | 1000 to 10000 | 10 to 100 | < 10 | < 10 | COc1ccc(F)cc1C(=O)NCc1ccc(-c2nn(C3CCOC3)c(N)c2C(N)=O)cc1F (stereo not drawn) [Example 119, 5-amino-3-[3-fluoro-4-[[(5-fluoro-2-methoxy-benzoyl)amino]methyl]phenyl]-1-tetrahydrofuran-3-yl-pyrazole-4-carboxamide]
17 | 1000 to 10000 | 100 to 1000 | < 10 | 10 to 100 | COc1ccccc1C(=O)NCc1ccc(-c2nn(C3CNCC3(F)F)c(N)c2C(N)=O)cc1F (stereo not drawn) [Example 160, 5-amino-1-(4,4-difluoropyrrolidin-3-yl)-3-[3-fluoro-4-[[(2-methoxybenzoyl)amino]methyl]phenyl]pyrazole-4-carboxamide]
18 | 100 to 1000 | 10 to 100 | < 10 | < 10 | COc1ccccc1C(=O)NCc1ccc(-c2nn([C@H]3CC[C@H](Cl)C3)c(N)c2C(N)=O)cc1 (relative stereo) [Example 37, 5-amino-1-[(1S*,3S*)-3-chlorocyclopentyl]-3-[4-[[(2-methoxybenzoyl)amino]methyl]phenyl]pyrazole-4-carboxamide]
19 | 100 to 1000 | 10 to 100 | < 10 | < 10 | COc1ccccc1C(=O)NCc1ccc(-c2nn([C@@H]3CCc4ccccc43)c(N)c2C(N)=O)cc1 [Example 23, 5-Amino-1-[(1R)-indan-1-yl]-3-[4-[[(2-methoxybenzoyl)amino]methyl]phenyl]pyrazole-4-carboxamide]
20 | 100 to 1000 | 10 to 100 | < 10 | < 10 | CCNc1c(C(N)=O)c(-c2ccc(CNC(=O)c3ccccc3OC)cc2)nn1C1CCCC1 [Example 73, 1-cyclopentyl-5-(ethylamino)-3-[4-[[(2-methoxybenzoyl)amino]methyl]phenyl]pyrazole-4-carboxamide]
21 | 10 to 100 | < 10 | < 10 | < 10 | COc1ccccc1C(=O)NCc1ccc(-c2nn(C3CCC(C)(C)CC3)c(N)c2C(N)=O)cc1 [Example 26, 5-Amino-1-(4,4-dimethylcyclohexyl)-3-[4-[[(2-methoxybenzoyl)amino]methyl]phenyl]pyrazole-4-carboxamide]
22 | 100 to 1000 | < 10 | < 10 | < 10 | COc1ccccc1C(=O)NCc1ccc(-c2nn(C3C[C@@H]4C[C@@H]4C3)c(N)c2C(N)=O)cc1 (stereo partly drawn) [Example 4, 5-Amino-1-(3-bicyclo[3.1.0]hexanyl)-3-[4-[[(2-methoxybenzoyl)amino]methyl]phenyl]pyrazole-4-carboxamide]
23 | 100 to 1000 | 10 to 100 | < 10 | < 10 | CCOC(=O)C1CCC(n2nc(-c3ccc(CNC(=O)c4ccccc4OC)cc3)c(C(N)=O)c2N)CC1 (stereo not drawn) [Example 40, Ethyl 4-[5-amino-4-carbamoyl-3-[4-[[(2-methoxybenzoyl)amino]methyl]phenyl]pyrazol-1-yl]cyclohexanecarboxylate]
24 | 100 to 1000 | < 10 | < 10 | < 10 | COc1ccc(F)cc1C(=O)NCc1ccc(-c2nn(C3CCCC3)c(N)c2C(N)=O)cc1 [Example 88, 5-amino-1-cyclopentyl-3-[4-[[(5-fluoro-2-methoxy-benzoyl)amino]methyl]phenyl]pyrazole-4-carboxamide]
